# System: STAT1 (phosphorylated at Tyr701) in NCI-H1373 cells
# Assay: Phospho-STAT1 (Tyr701) LANCE Ultra TR-FRET detection assay
# Format: cell-based
# Conditions: Homo sapiens, NCI-H1373, 48 h, induction of pSTAT1 in NCI-H1373 cells, 48 hours incubation; normalized to 10 uM positive control and DMSO; 4-parameter fit; read-out: NH1373 pSTAT1 EC50
# Protocol: Phospho-STAT1 (Tyr701 LANCE Ultra TR-FRET Detection Assay
# LANCE Ultra phospho-STAT1 (Tyr701) kits are designed for the detection of phosphorylated STAT1 in cell lysates using a simple, homogeneous LANCE Ultra sandwich assay (Cat. #TRF4028M). This assay is intended for assessing compound induction of endogenous levels of cellular STAT1 (phosphorylated at Tyr701) in NCI-H1373 cells. The NCI-H1373 cells are cultured in RPMI 1640 media containing 10% heat inactivated FBS, GlutaMAX, 1% Penicillin-Streptomycin. An Echo acoustic liquid handler is used to transfer 60 nanoliters of compound dilutions using the Echo Qualified, 384-well polypropylene microplate clear flat bottom source plates into a Greiner (#781080) cell culture microplate. NCI-H1373 cells are seeded into these compound-spotted culture plates at 30,000 cells/well in a 60 uL volume in growth media. The plates are incubated in a 5% CO2 humidified incubator at 37° C. for 48 hours. […] Briefly, […] of supplemented lysis buffer is added to each well and allowed to shake for 1 hour at 400 rpm. Next, 5 ul of remixed antibody solutions (vol/vol) prepared in detection buffer are added to each well and allowed to incubate at room temperature overnight. After spinning the plate down at 300 rpm for 1 min, the plate is read on an EnVision plate reader set up for Eu3+ Cryptate and fluorescence emission is measured at two different wavelengths (665 nm and 620 nm). The HTRF ratio is then calculated ([…]) for each well to determine the amount of pSTAT1 in the cell lysate, and the data is then normalized to 10 uM (S)-5-((1-(3-oxo-3-(4-(5-(trifluoromethyl)pyrimidin-2-yl)piperazin-1-yl)propoxy)propan-2-yl)amino)-4-(trifluoromethyl)pyridazin-3(2H)-one positive and DMSO negative controls. The values were then plotted as a function of compound concentration and a 4-parameter fit was applied to derive the EC50 values.
row,SMILES,EC50 [nM]
1,"O=C1c2cc(F)c(-c3ncc(C(F)(F)F)cn3)cc2CCN1C[C@@H]1CCC[C@H](Nc2cn[nH]c(=O)c2C(F)(F)F)C1 [Example 69, 7-fluoro-2-[[(1R,3S)-3-[[6-oxo-5-(trifluoromethyl)-1H-pyridazin-4-yl]amino]cyclohexyl]methyl]-6-[5-(trifluoromethyl)pyrimidin-2-yl]-3,4-dihydroisoquinolin-1-one]",4.56
2,"CC(O)(c1cnc(-c2cc3ccn(C[C@@H]4CCC[C@H](Nc5cn[nH]c(=O)c5C(F)(F)F)C4)c(=O)c3cc2F)nc1)C(F)F (stereo partly drawn) [Example 27, 6-(5-(1,1-difluoro-2-hydroxypropan-2-yl)pyrimidin-2-yl)-7-fluoro-2-(((1R,3S)-3-((6-oxo-5-(trifluoromethyl)-1,6-dihydropyridazin-4-yl)amino)cyclohexyl)methyl)isoquinolin-1(2H)-one]",16.8
3,CC(C)(O)c1cnc(-c2cc3c(F)cn(C[C@@H]4CCC[C@H](Nc5cn[nH]c(=O)c5C(F)(F)F)C4)c(=O)c3cc2F)nc1 [Example 39],4.2
4,"O=c1[nH]ncc(N[C@H]2CCC[C@@H](Cn3cnc4cc(-c5ncc(OC(F)F)cn5)c(F)cc4c3=O)C2)c1C(F)(F)F [Example 25, 7-(5-(difluoromethoxy)pyrimidin-2-yl)-6-fluoro-3-(((1R,3S)-3-((6-oxo-5-(trifluoromethyl)-1,6-dihydropyridazin-4-yl)amino)cyclohexyl)methyl)quinazolin-4(3H)-one]",3.78
5,"[2H]C([2H])([2H])Oc1cnc(-c2cc3c(F)cn(C[C@@H]4CCC[C@H](Nc5cn[nH]c(=O)c5C(F)(F)F)C4)c(=O)c3cc2F)nc1 [Example 45, 4,7-difluoro-2-[[(1R,3S)-3-[[6-oxo-5-(trifluoromethyl)-1H-pyridazin-4-yl]amino]cyclohexyl]methyl]-6-[5-(trideuteriomethoxy)pyrimidin-2-yl]isoquinolin-1-one]",10.5
6,"O=c1[nH]ncc(O[C@H]2CCC[C@@H](Cn3cc(F)c4cc(-c5ncc(C(F)F)cn5)c(F)c(F)c4c3=O)C2)c1C(F)(F)F [Example 52, 6-(5-(difluoromethyl)pyrimidin-2-yl)-4,7,8-trifluoro-2-(((1R,3S)-3-((6-oxo-5-(trifluoromethyl)-1,6-dihydropyridazin-4-yl)oxy)cyclohexyl)methyl)isoquinolin-1(2H)-one]",1.22
7,"O=c1[nH]ncc(O[C@H]2CCC[C@@H](Cn3cc(F)c4cc(-c5ncc(OC(F)F)cn5)c(F)c(F)c4c3=O)C2)c1C(F)(F)F [Example 50, 6-(5-(difluoromethoxy)pyrimidin-2-yl)-4,7,8-trifluoro-2-(((1R,3S)-3-((6-oxo-5-(trifluoromethyl)-1,6-dihydropyridazin-4-yl)oxy)cyclohexyl)methyl)isoquinolin-1(2H)-one]",1.29
8,"CC(O)c1cnc(-c2cc3ccn(C[C@@H]4CCC[C@H](Nc5cn[nH]c(=O)c5C(F)(F)F)C4)c(=O)c3cc2F)nc1 (stereo partly drawn) [Example 10, 7-fluoro-6-(5-(1-hydroxyethyl)pyrimidin-2-yl)-2-(((1R,3S)-3-((6-oxo-5-(trifluoromethyl)-1,6-dihydropyridazin-4-yl)amino)cyclohexyl)methyl)isoquinolin-1(2H)-one]",6.86
9,"CC(C)(O)c1cnc(-c2cc3ccn(C[C@@H]4CCC[C@H](Oc5cn[nH]c(=O)c5C(F)(F)F)C4)c(=O)c3cc2F)nc1 [Example 57, 7-fluoro-6-(5-(2-hydroxypropan-2-yl)pyrimidin-2-yl)-2-(((1R,3S)-3-((6-oxo-5-(trifluoromethyl)-1,6-dihydropyridazin-4-yl)oxy)cyclohexyl)methyl)isoquinolin-1(2H)-one]",1.82
10,"O=c1[nH]ncc(N[C@H]2CCC[C@@H](Cn3cc(Cl)c4cc(-c5nc6ccccn6n5)c(F)cc4c3=O)C2)c1C(F)(F)F [Example 59, 6-([1,2,4]triazolo[1,5-a]pyridin-2-yl)-4-chloro-7-fluoro-2-(((1R,3S)-3-((6-oxo-5-(trifluoromethyl)-1,6-dihydropyridazin-4-yl)amino)cyclohexyl)methyl)isoquinolin-1(2H)-one]",2.02
